The results in this text go back to patent US20230365959A1, “METHOD FOR IMPROVING THE STABILITY OF A COMPOSITION COMPRISING A FLAVIN-DEPENDENT LACTATE DEHYDROGENASE” (KIKKOMAN CORPORATION, priority 2020, published 2023).

Holding throughout (format): biochemical
The test system of assay [1] is lactate dehydrogenase from Pichia kudriavzevii (PkLDH). The assay is described as follows: Thermal stability of PkLDH (residual activity ratio after heat treatment, potassium phosphate buffer). To be noted: PkLDH 2 U/mL. The method, then: Thermal stability of LDH can be evaluated by heating LDH at a given temperature for a given time and comparing the activity thereof before and after heating. […] The LDH activity of an LDH solution which is allowed to stand still on ice without heating is taken as 100 and the LDH activity after heating is calculated and, the residual activity ratio (ratio of remaining activity) (%) can be determined.
More specifically, the residual activity ratio (%) can be obtained by measuring LDH activity value (a) of a solution before heat treatment or before long-term storage and LDH activity value (b) of a solution after heat treatment or after long-term storage and calculating ((b)/(a)×100).
Using the purified PkLDH preparation obtained above, the residual activity ratio (%) in the presence and absence of an LDH stabilizer were compared in accordance with the LDH thermal stability evaluation method mentioned previously, and in this manner, a stabilizer was searched.
(§1) The thermal stability of LDH was evaluated by heating LDH at a given temperature for a given time and comparing the activities before and after heating. […] Further, LDH activity of an LDH solution allowed to stand still on ice without any heat treatment was measured. Based on the activity of this case without any heat treatment taken as 100, the activities of LDH solutions after heat treatment were calculated to determine the residual activity ratio (%). More specifically, the residual activity ratio (%) can be obtained by measuring LDH activity value (a) of a solution before heat treatment or before long-term storage, and LDH activity value (b) of a solution after heat treatment or after long-term storage, and then, calculating ((b)/(a)×100).
The degree of LDH stability improving effect of each of the various added compounds was evaluated by preparing an LDH solution by allowing LDH to coexist with each of the various compounds, subjecting the solution to a heat treatment and determining the residual activity ratio (%) of the solution, and evaluating the residual activity (%) by mutually comparing the cases between compounds or comparing the case to a case where no compound was added.
(§2) The activity of LDH was determined in accordance with the following procedure. […] Subsequently, a 30 mM PMS solution (50 μL) and an enzyme sample solution (50 μL) were added to the mixture to initiate a reaction. Absorbance at 520 nm was measured at the time of initiation of the reaction and over time and, the degree of reduction (ΔA520) in absorbance per minute as the enzymatic reaction progresses was obtained and LDH activity was calculated in accordance with the following Mathematical formula 2. Here, LDH activity is expressed by an enzyme (LDH) unit, and 1U is defined as the amount of the enzyme that can reduce 1 μmol DCIP per minute at 37° C. in the presence of 10 mM L-lactate.
The pH of the PkLDH solution was adjusted to be 7.5 after each of the compounds was added. Heat treatment was carried out at 55° C. for 15 minutes. As a comparative example, an LDH solution prepared without adding any compound was subjected to the same experiment. It should be noted that, unless specified otherwise, the reagents used herein were all purchased from Tokyo Chemical Industry Co., Ltd. […]

Assay [2] has as its system lactate dehydrogenase from Candida inconspicua (CaLDH). The assay is described as follows: Thermal stability of CaLDH (residual activity ratio after heat treatment). To be noted: CaLDH 2 U/mL; added compound 300 mM; potassium phosphate buffer pH 7.5; 50°C for 15 minutes. The method, then: as §1, §2
Stability evaluation tests were conducted to check the improvement effect of malic acid on the stability of various LDHs. […] Each of these diluted enzyme solutions (a mixture of an enzyme and L-malic acid, LDH concentration: 2 U/mL, L-malic acid concentration: 300 mM) was heated in accordance with the thermal-stability evaluation method described in Section 4. More specifically, PkLDH was treated at 55° C., whereas, CaLDH and OgLDH were treated at 50° C. for 15 minutes and then the residual activity ratio (%) was calculated, based on the activity before heating taken as 100. […]

Assay [3] deals with lactate dehydrogenase from Ogataea parapolymorpha (OgLDH). The assay is described as follows: Thermal stability of OgLDH (residual activity ratio after heat treatment). Particulars: OgLDH 2 U/mL, potassium phosphate buffer pH 7.5, 50°C for 15 minutes. Here is the method: as §1, §2
Stability evaluation tests were conducted to check the improvement effect of malic acid on the stability of various LDHs. […] Each of these diluted enzyme solutions (a mixture of an enzyme and L-malic acid, LDH concentration: 2 U/mL, L-malic acid concentration: 300 mM) was heated in accordance with the thermal-stability evaluation method described in Section 4. More specifically, PkLDH was treated at 55° C., whereas, CaLDH and OgLDH were treated at 50° C. for 15 minutes and then the residual activity ratio (%) was calculated, based on the activity before heating taken as 100. As a comparative example, a sample without adding any L-malic acid in the enzyme diluent was subjected to the same experiment, and the ratio of residual activity in both cases were compared.
Using the purified OgLDH preparation obtained above, the ratios of remaining activities (%) in the presence and absence of a LDH stabilizer were compared in accordance with the LDH thermal stability evaluation method described in Section 4. In this manner, a stabilizer was searched.
The pH of the LDH solution was adjusted to be 7.5 after each of the compounds was added. Heat treatment was carried out at 50° C. for 15 minutes.

The target in assay [4] is T1, lactate dehydrogenase from Saccharomyces cereviciae (ScLDH) (Saccharomyces cerevisiae, UniProt P00175).
T1 construct: made in house; host or cells: Escherichia coli BL21 (pKK223-3-ScLDH); unpurified supernatant of crushed cells
T1 sequence (P00175 86-591): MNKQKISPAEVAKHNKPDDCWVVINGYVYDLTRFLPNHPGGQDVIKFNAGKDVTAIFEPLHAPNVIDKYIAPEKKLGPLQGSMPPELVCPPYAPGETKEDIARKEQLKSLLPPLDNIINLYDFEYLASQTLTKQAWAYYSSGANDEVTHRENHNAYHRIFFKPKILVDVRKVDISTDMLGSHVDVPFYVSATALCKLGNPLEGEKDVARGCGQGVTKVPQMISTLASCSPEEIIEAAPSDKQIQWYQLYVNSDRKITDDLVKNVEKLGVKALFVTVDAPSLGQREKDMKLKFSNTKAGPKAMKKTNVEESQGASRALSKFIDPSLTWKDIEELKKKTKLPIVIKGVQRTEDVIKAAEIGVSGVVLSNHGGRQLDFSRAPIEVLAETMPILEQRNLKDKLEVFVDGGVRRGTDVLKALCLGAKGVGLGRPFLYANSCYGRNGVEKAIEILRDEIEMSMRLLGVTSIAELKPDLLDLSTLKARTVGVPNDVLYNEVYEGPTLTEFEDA
The assay is described as follows: Thermal stability of ScLDH (supernatant of crushed bacterial cells). To be noted: ScLDH 2 U/mL; compound 300 mM; potassium phosphate buffer pH 7.5; 40°C for 15 minutes. Here is the method:
as §1, §2
Using the supernatant of a solution comprising crushed ScLDH bacterial cells obtained above, the ratios of remaining activities (%) in the presence and absence of a LDH stabilizer were compared in accordance with the LDH thermal stability evaluation method described in Section 4. In this manner, a stabilizer was searched.
The pH of the LDH solution was adjusted to be 7.5 after each of the compounds was added. Heat treatment was carried out at 40° C. for 15 minutes.

Assay [5] relates to lactate dehydrogenase from Pichia kudriavzevii (PkLDH). In words: Thermal stability of PkLDH in 150 mM HEPES buffer. Particulars: PkLDH 2 U/mL, 150 mM HEPES buffer pH 7.5, 55°C for 15 minutes. Here is the method:
as §1
The activity of LDH was determined in accordance with the following procedure. […] Subsequently, a 30 mM PMS solution (50 μL) and an enzyme sample solution (50 μL) were added to the mixture to initiate a reaction. Absorbance at 520 nm was measured at the time of initiation of the reaction and over time and, the degree of reduction (ΔA520) in absorbance per minute as the enzymatic reaction progresses was obtained and LDH activity was calculated in accordance with the following Mathematical formula 2. […]

Assay [6] shares this test system. The assay is described as follows: Chronoamperometry with printed electrode to which PkLDH plus stabilizer was applied and dried (2 mM mPMS/PBS). To be noted: added compound 50 mM, LDH 1 U dried at 40°C for 60 minutes, +200 mV. The method, then: An enzyme electrode was prepared using the purified PkLDH preparation obtained above and chronoamperometry was carried out. Each of the compounds was added to an enzyme solution in advance and tested whether or not a stabilizing effect of the enzyme during a drying step was exerted. LDH (1 U) solutions comprising compounds in a concentration (0.2% (w/v), 2% (w/v) and 50 mM, respectively) as described in Table 8 were each applied to a screen-printed carbon electrode C110 (manufactured by Metrohm-Dropsens) in an amount of 4 μL and dried at 40° C. for 60 minutes. The same procedure was repeated using an LDH solution without adding any one of the compounds. Each of the electrodes prepared was connected to ALS electrochemical analyzer 814D (manufactured by BAS) using a dedicated connector (DRP-CAC, manufactured by Drop Sense). Subsequently, 100 μL of a 2 mM mPMS/PBS solution was added dropwise to dissolve the dried LDH. The applied voltage was +200 mV (vs Ag/Ag+). An L-sodium lactate solution was added and a response current value 5 seconds after initiation of measurement was recorded. […] Then, an L-sodium lactate solution was added such that the final concentration thereof would be 2 to 10 mM, and a response current value 5 seconds after initiation of measurement was recorded.

Each structure is given as a SMILES string.

For `O=C(O)C[C@H](O)C(=O)O` [L-malic acid], the “Residual activity ratio (%)” value in assay [1] (added compound 300 mM, 150 mM potassium phosphate buffer pH 7.5, 0.15% BSA, 55°C for 15 minutes) is on record as 80%; in assay [1] (final concentration of malic acid 10 mM, 55°C for 15 min), 36%; in assay [1] (final concentration of malic acid 30 mM, 55°C for 15 min) it was 44%; in assay [1] (final concentration of malic acid 100 mM, 55°C for 15 min), 52%; in assay [1] (final concentration of malic acid 500 mM, 55°C for 15 min), 90%; in assay [5] (added compound 300 mM), 100%. Further, in assay [2], the “Residual activity ratio (%) CaLDH” value is recorded as 45%. Also, in assay [3] (added compound 300 mM), the “Residual activity ratio (%) OgLDH” value worked out at 88%. Also, the “stability improving effect on ScLDH” value in assay [4] was found to be 41%.

Turning to `O=C([O-])CC(=O)[O-].[Na+].[Na+]` [disodium malonate], the “LDH stability improving effect” value in assay [3] (compound 300 mM) turned out to be 96%. The “stability improving effect on ScLDH” value in assay [4] is reported as 26%. Also, in assay [5] (added compound 350 mM), the “Residual activity ratio (%)” value amounted to 101%. The “Current value 5 seconds later (μA), 0 mM lactate” value in assay [6] (0 mM lactate) amounted to 0.21 μA. Further, the “Current value 5 seconds later (μA), 2 mM lactate” value in assay [6] (2 mM lactate) came out at 61.8 μA.
